Patent publication US20110301170A1, “Inhibitors of JNK” (priority 2010, published 2011)
Structures can show the parent of a compound that is named as a salt.

Tests used:
JNK = system: T1, JNK; test: JNK Assay in vitro (phosphorylation of GST-ATF2 with [γ-33P] ATP); type: biochemical, Human; settings: IC50 affinity values; JNK isoform (JNK1α1, JNK2α2 or JNK3) not stated; Km concentrations of ATP and substrate; 30° C. for 30 min
T1 construct: Human JNK2α2 assay contains 1 nM enzyme; Human JNK1α1 assay contains 2 nM enzyme
Description: JNK activity was measured by phosphorylation of GST-ATF2 (19-96) with [-^33P] ATP. […] Human JNK2α2 assay contains 1 nM enzyme, 1 μM ATF2, 8 μM ATP with 1 uCi [γ-^33P] ATP. Human JNK1α1 assay contains 2 nM enzyme, 1 μM ATF2, 6 μM ATP with 1 μCi [γ-^33P] ATP. Human JNK3 (Upstate Biotech #14-501M) assay contains 2 nM enzyme, 1 μM ATF2, 4 μM ATP with 1 μCi [γ-^33P] ATP. The enzyme assay was carried out in the presence or absence of several compound concentrations. JNK and compound were pre-incubated for 10 min., followed by initiation of the enzymatic reaction by adding ATP and the substrate. The reaction mixture was incubated at 30° C. for 30 min. At the end of incubation, the reaction was terminated by transferring 25 μl of the reaction mixture to 150 μl of 10% glutathione Sepharose® slurry (Amersham #27-4574-01) containing 135 mM EDTA. The reaction product was captured on the affinity resin, and washed on a filtration plate (Millipore, MABVNOB50) with phosphate buffered saline for six times to remove free radionucleotide. The incorporation of ^33P into ATF2 was quantified on a microplate scintillation counter (Packard Topcount). Compound inhibition potency on JNK was measured by IC50 value generated from ten concentration inhibition curves fitted into the 3-parameter model: % inhibition=Maximum/(1+(IC50/[Inhibitor])^slope). Data were analyzed on Microsoft Excel for parameter estimation.

| melting point | IC50 (JNK) | Structure (SMILES) |
| --- | --- | --- |
| 220 to 224.9 °C |  | C=C(C)c1cccc2c1ccn2-c1ccnc(N[C@H]2CC[C@H](C(=O)N3CCn4c(C)cnc4C3)CC2)n1 (as salt: HCl) [Compound 10, {4-[4-(4-Isopropenyl-indol-1-yl)-pyrimidin-2-ylamino]-cyclohexyl}-(3-methyl-5,6-dihydro-8H-imidazo[1,2-a]pyrazin-7-yl)-methanone] |
| 190 to 195 °C |  | Cc1cnc2n1CCN(C(=O)[C@H]1CC[C@H](Nc3nccc(-n4ccc5c(OC(F)F)cccc54)n3)CC1)C2 (as salt: HCl) [Compound 11, {4-[4-(4-Difluoromethoxy-indol-1-yl)-pyrimidin-2-ylamino]-cyclohexyl}-(3-methyl-5,6-dihydro-8H-imidazo[1,2-a]pyrazin-7-yl)-methanone] |
| 178 to 180 °C |  | Cc1nnc2n1CCN(C(=O)[C@H]1CC[C@H](Nc3nccc(-n4ccc5c(OCCCS(C)(=O)=O)cccc54)n3)CC1)C2 (as salt: HCl) [Compound 23, (4-{4-[4-(3-Methanesulfonyl-propoxy)-indol-1-yl]-pyrimidin-2-ylamino}-cyclohexyl)-(3-methyl-5,6-dihydro-8H-[1,2,4]triazolo[4,3-a]pyrazin-7-yl)-methanone] |
| 215 to 220 °C |  | O=C([C@H]1CC[C@H](Nc2nccc(-n3ccc4c(OCC5CCS(=O)(=O)C5)cccc43)n2)CC1)N1CCn2cnnc2C1 (some centres unmarked) (as salt: HCl) [Compound 24, (5,6-Dihydro-8H-[1,2,4]triazolo[4,3-a]pyrazin-7-yl)-(4-{4-[4-(1,1-dioxo-tetrahydro-1λ6-thiophen-3-ylmethoxy)-indol-1-yl]-pyrimidin-2-ylamino}-cyclohexyl)-methanone] |
|  | 65 nM | C=C(C)c1cccc2c1ccn2-c1ccnc(N[C@H]2CC[C@H](C(=O)N3CCn4c(C)cnc4C3)CC2)n1 [Compound 10, {4-[4-(4-Isopropenyl-indol-1-yl)-pyrimidin-2-ylamino]-cyclohexyl}-(3-methyl-5,6-dihydro-8H-imidazo[1,2-a]pyrazin-7-yl)-methanone] |
|  | 97 nM | Cc1cnc2n1CCN(C(=O)[C@H]1CC[C@H](Nc3nccc(-n4ccc5c(OC(F)F)cccc54)n3)CC1)C2 [Compound 11, {4-[4-(4-Difluoromethoxy-indol-1-yl)-pyrimidin-2-ylamino]-cyclohexyl}-(3-methyl-5,6-dihydro-8H-imidazo[1,2-a]pyrazin-7-yl)-methanone] |
|  | 12 nM | CS(=O)(=O)CCCOc1cccc2c1cnn2-c1ccnc(N[C@H]2CC[C@H](C(=O)N3CCn4cc(C(F)(F)F)nc4C3)CC2)n1 [Compound 13, (4-{4-[4-(3-Methanesulfonyl-propoxy)-indazol-1-yl]-pyrimidin-2-ylamino}-cyclohexyl)-(2-trifluoromethyl-5,6-dihydro-8H-imidazo[1,2-a]pyrazin-7-yl)-methanone] |
|  | 12 nM | O=C([C@H]1CC[C@H](Nc2nccc(-n3ncc4c(OCC5CCS(=O)(=O)C5)cccc43)n2)CC1)N1CCn2ccnc2C1 (some centres unmarked) [Compound 15, (5,6-Dihydro-8H-imidazo[1,2-a]pyrazin-7-yl)-(4-{4-[4-(1,1-dioxo-tetrahydro-1λ6-thiophen-3-ylmethoxy)-indazol-1-yl]-pyrimidin-2-ylamino}-cyclohexyl)-methanone] |
|  | 32 nM | Cc1nnc2n1CCN(C(=O)[C@H]1CC[C@H](Nc3nccc(-n4ccc5c(OCCCS(C)(=O)=O)cccc54)n3)CC1)C2 [Compound 23, (4-{4-[4-(3-Methanesulfonyl-propoxy)-indol-1-yl]-pyrimidin-2-ylamino}-cyclohexyl)-(3-methyl-5,6-dihydro-8H-[1,2,4]triazolo[4,3-a]pyrazin-7-yl)-methanone] |
|  | 17 nM | O=C([C@H]1CC[C@H](Nc2nccc(-n3ccc4c(OCC5CCS(=O)(=O)C5)cccc43)n2)CC1)N1CCn2cnnc2C1 (some centres unmarked) [Compound 24, (5,6-Dihydro-8H-[1,2,4]triazolo[4,3-a]pyrazin-7-yl)-(4-{4-[4-(1,1-dioxo-tetrahydro-1λ6-thiophen-3-ylmethoxy)-indol-1-yl]-pyrimidin-2-ylamino}-cyclohexyl)-methanone] |
|  | 191 nM | C=C(C)c1cccc2c1ccn2-c1ccnc(N[C@H]2CC[C@H](C(=O)N3CCn4cnnc4C3)CC2)n1 [Compound 25, (5,6-Dihydro-8H-[1,2,4]triazolo[4,3-a]pyrazin-7-yl)-{4-[4-(4-isopropenyl-indol-1-yl)-pyrimidin-2-ylamino]-cyclohexyl}-methanone] |
|  | 174 nM | C=C(C)c1cccc2c1ccn2-c1ccnc(N[C@H]2CC[C@H](C(=O)N3CCn4c(C)nnc4C3)CC2)n1 [Compound 26, {4-[4-(4-Isopropenyl-indol-1-yl)-pyrimidin-2-ylamino]-cyclohexyl}-(3-methyl-5,6-dihydro-8H-[1,2,4]triazolo[4,3-a]pyrazin-7-yl)-methanone] |
|  | 269 nM | O=C([C@H]1CC[C@H](Nc2nccc(-n3ccc4c(OC(F)F)cccc43)n2)CC1)N1CCn2cnnc2C1 [Compound 27, {4-[4-(4-Difluoromethoxy-indol-1-yl)-pyrimidin-2-ylamino]-cyclohexyl}-(5,6-dihydro-8H-[1,2,4]triazolo[4,3-a]pyrazin-7-yl)-methanone] |
|  | 228 nM | Cc1nnc2n1CCN(C(=O)[C@H]1CC[C@H](Nc3nccc(-n4ccc5c(OC(F)F)cccc54)n3)CC1)C2 [Compound 28, {4-[4-(4-Difluoromethoxy-indol-1-yl)-pyrimidin-2-ylamino]-cyclohexyl}-(3-methyl-5,6-dihydro-8H-[1,2,4]triazolo[4,3-a]pyrazin-7-yl)-methanone] |
|  | 58 nM | Cc1cccc2c1nnn2-c1ccnc(N[C@H]2CC[C@H](C(=O)N3CCn4cc(C(F)(F)F)nc4C3)CC2)n1 [Compound 33, {4-[4-(4-Methyl-benzotriazol-1-yl)-pyrimidin-2-ylamino]-cyclohexyl}-(2-trifluoromethyl-5,6-dihydro-8H-imidazo[1,2-a]pyrazin-7-yl)-methanone] |
|  | 59 nM | Cc1cccc2c1nnn2-c1ccnc(N[C@H]2CC[C@H](C(=O)N3CCn4cnnc4C3)CC2)n1 [Compound 34, (5,6-Dihydro-8H-[1,2,4]triazolo[4,3-a]pyrazin-7-yl)-{4-[4-(4-methyl-benzotriazol-1-yl)-pyrimidin-2-ylamino]-cyclohexyl}-methanone] |
|  | 38 nM | Cc1cccc2c1nnn2-c1ccnc(N[C@H]2CC[C@H](C(=O)N3CCn4c(C)nnc4C3)CC2)n1 [Compound 35, {4-[4-(4-Methyl-benzotriazol-1-yl)-pyrimidin-2-ylamino]-cyclohexyl}-(3-methyl-5,6-dihydro-8H-[1,2,4]triazolo[4,3-a]pyrazin-7-yl)-methanone] |
|  | 180 nM | O=C([C@H]1CC[C@@H](Nc2nccc(-n3nnc4c(C(F)(F)F)cccc43)n2)CC1)N1CCn2cnnc2C1 [Compound 37, (5,6-Dihydro-8H-[1,2,4]triazolo[4,3-a]pyrazin-7-yl)-{4-[4-(4-trifluoromethyl-benzotriazol-1-yl)-pyrimidin-2-ylamino]-cyclohexyl}-methanone] |
|  | 49 nM | CC(C)(O)c1cccc2c1nnn2-c1ccnc(N[C@H]2CC[C@H](C(=O)N3CCn4cnnc4C3)CC2)n1 [Compound 38, (5,6-Dihydro-8H-[1,2,4]triazolo[4,3-a]pyrazin-7-yl)-(4-{4-[4-(1-hydroxy-1-methyl-ethyl)-benzotriazol-1-yl]-pyrimidin-2-ylamino}-cyclohexyl)-methanone] |
|  | 31 nM | Cc1nnc2n1CCN(C(=O)[C@H]1CC[C@H](Nc3nccc(-n4nnc5c(C(C)(C)O)cccc54)n3)CC1)C2 [Compound 39, (4-{4-[4-(1-Hydroxy-1-methyl-ethyl)-benzotriazol-1-yl]-pyrimidin-2-ylamino}-cyclohexyl)-(3-methyl-5,6-dihydro-8H-[1,2,4]triazolo[4,3-a]pyrazin-7-yl)-methanone] |
|  | 52 nM | Cc1cnc2n1CCN(C(=O)[C@H]1CC[C@H](Nc3nccc(-n4nnc5c(C(C)(C)O)cccc54)n3)CC1)C2 [Compound 41, (4-{4-[4-(1-Hydroxy-1-methyl-ethyl)-benzotriazol-1-yl]-pyrimidin-2-ylamino}-cyclohexyl)-(3-methyl-5,6-dihydro-8H-imidazo[1,2-a]pyrazin-7-yl)-methanone] |
|  | 205 nM | O=C([C@H]1CC[C@H](Nc2nccc(-c3cnc4c(C(F)(F)F)cccn34)n2)CC1)N1CCn2cnnc2C1 [Compound 42, (5,6-Dihydro-8H-[1,2,4]triazolo[4,3-a]pyrazin-7-yl)-{4-[4-(8-trifluoromethyl-imidazo[1,2-a]pyridin-3-yl)-pyrimidin-2-ylamino]-cyclohexyl}-methanon] |
|  | 234 nM | Cc1nnc2n1CCN(C(=O)[C@H]1CC[C@H](Nc3nccc(-c4cnc5c(C(F)(F)F)cccn45)n3)CC1)C2 [Compound 43, (3-Methyl-5,6-dihydro-8H-[1,2,4]triazolo[4,3-a]pyrazin-7-yl)-{4-[4-(8-trifluoromethyl-imidazo[1,2-a]pyridin-3-yl)-pyrimidin-2-ylamino]-cyclohexyl}-methanone] |
